Measurements: paper PMC5838524 (Molecular Informatics, 2018)

What was measured:
Assay in all cases: Gal4 hybrid reporter gene assay
Type in all cases: cell-based
Settings in all cases: agonist mode; printed as 'inactive' (no significant transactivation at 30 μM)
PPARα = biological target: T1, PPARα (Homo sapiens, UniProt Q07869)
T1 sequence (Q07869 167-468 limits assumed): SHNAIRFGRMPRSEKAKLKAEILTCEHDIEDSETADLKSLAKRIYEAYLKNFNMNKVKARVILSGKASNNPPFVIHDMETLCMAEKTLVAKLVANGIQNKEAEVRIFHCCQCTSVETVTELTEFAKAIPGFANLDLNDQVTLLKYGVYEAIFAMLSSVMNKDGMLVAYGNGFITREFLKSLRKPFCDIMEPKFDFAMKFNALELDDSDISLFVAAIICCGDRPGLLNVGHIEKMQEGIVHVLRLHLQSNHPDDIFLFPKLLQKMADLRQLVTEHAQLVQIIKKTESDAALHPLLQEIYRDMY

PPARδ = biological target: T2, PPARδ (Homo sapiens, UniProt Q03181)
T2 sequence (Q03181 139-441 limits assumed): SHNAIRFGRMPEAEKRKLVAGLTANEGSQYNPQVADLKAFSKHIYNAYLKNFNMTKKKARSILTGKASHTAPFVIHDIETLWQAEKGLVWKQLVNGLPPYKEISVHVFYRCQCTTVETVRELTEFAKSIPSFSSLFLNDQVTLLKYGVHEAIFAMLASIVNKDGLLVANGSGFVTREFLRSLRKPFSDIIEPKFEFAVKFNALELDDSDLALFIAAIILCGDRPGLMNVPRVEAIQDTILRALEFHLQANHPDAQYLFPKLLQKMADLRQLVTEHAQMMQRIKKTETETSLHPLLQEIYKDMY

RXRα = biological target: T3, RXRα (Homo sapiens, UniProt P19793)
T3 sequence (P19793 225-462 limits assumed): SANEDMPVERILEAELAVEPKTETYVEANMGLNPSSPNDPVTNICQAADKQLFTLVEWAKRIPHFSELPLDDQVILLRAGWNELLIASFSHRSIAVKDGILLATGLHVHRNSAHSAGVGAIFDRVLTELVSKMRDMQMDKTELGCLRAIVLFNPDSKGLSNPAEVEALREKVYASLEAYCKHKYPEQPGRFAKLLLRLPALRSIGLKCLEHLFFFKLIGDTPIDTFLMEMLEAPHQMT

RXRβ = biological target: T4, RXRβ (Homo sapiens, UniProt P28702)
T4 sequence (P28702 296-533 limits assumed): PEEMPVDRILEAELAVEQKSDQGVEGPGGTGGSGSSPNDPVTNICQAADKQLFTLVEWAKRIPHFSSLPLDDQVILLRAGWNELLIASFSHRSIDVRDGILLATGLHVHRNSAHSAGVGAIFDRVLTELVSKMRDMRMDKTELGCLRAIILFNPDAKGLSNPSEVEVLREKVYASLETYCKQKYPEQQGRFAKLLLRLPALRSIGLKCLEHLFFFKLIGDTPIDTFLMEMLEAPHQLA

RXRγ = biological target: T5, RXRγ (Homo sapiens, UniProt P48443)
T5 sequence (P48443 231-459 limits assumed): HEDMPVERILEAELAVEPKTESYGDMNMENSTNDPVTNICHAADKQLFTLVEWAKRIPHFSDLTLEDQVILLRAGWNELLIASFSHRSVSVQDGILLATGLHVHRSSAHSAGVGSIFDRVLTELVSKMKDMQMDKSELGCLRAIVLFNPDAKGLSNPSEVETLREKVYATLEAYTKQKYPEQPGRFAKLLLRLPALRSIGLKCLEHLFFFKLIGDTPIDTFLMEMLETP

Row | SMILES | EC50 (PPARα) [µM] | EC50 (PPARδ) [µM] | EC50 (RXRα) [µM] | EC50 (RXRβ) [µM] | EC50 (RXRγ) [µM]
1 | O=C(O)c1cccc(NC(=O)c2ccc(-c3ccccc3)s2)c1 [compound 1, design 1] | > 30 | > 30 | – | – | –
2 | O=C(O)c1ccc(-c2cc(F)ccc2OCc2ccc(F)cc2)c(C(F)(F)F)c1 [compound 2, design 2] | > 30 | > 30 | – | – | –
3 | O=C(O)c1ccc(-c2cccc(O)c2)cc1OC1CCCC1 [compound 3, design 3] | – | > 30 | > 30 | > 30 | > 30
